Consider 13 compounds from patent publication US4087613A, “1,3,5- Or 1,3,6-naphthalenetriyltris(sulfonylimino)aryl acids and salts” (American Cyanamid Company, priority 1977, dated 1978).

In one experiment the test system is complement system. The following applies: literature report; cited from earlier work.
For experiment [1], the system named is hereditary angioneurotic edema. To be noted: The New England Journal of Medicine, 286, 808-812 (1972); cited from earlier work.
A further experiment has as its system shunt pathway. Description: Test, Code 036 (C-Shunt inhibitor): lysis of human erythrocytes via the shunt pathway activated by cobra venom factor. Type of experiment: biochemical. The arrangement: key: Negative. The following applies: serial two-fold dilution assay; higher well number indicates higher activity. An excerpt:
(§1) An active inhibitor protects C2 from C1 and C4; (ii) Test, Code 035 (C3-C9 inhibitor) -- This test determines the ability of the late components of human complement (C3-C9) to lyse EAC 142 in the presence of appropriate dilutions of the test compound. An active inhibitor protects EAC 142 from lysis by human C3-C9; (iii) Test, Code 036 (C-Shunt inhibitor) -- In this test human erythrocytes rendered fragile are lysed in autologous serum via the shunt pathway activated by cobra venom factor in the presence of appropriate dilutions of the test compound. Inhibition of the shunt pathway results in failure of lysis; (iv) Forssman Vasculitis Test -- Here, the well known complement dependent lesion, Forssman vasculitis, is produced in guinea pigs by intradermal injection of rabbit anti-Forssman antiserum. The lesion is measured in terms of diameter, edema and hemorrhage and the extent to which a combined index of these is inhibited by prior intraperitoneal injection of the test compound at 200 mg/kg is then reported, unless otherwise stated; (v) Forssman Shock Test -- Lethal shock is produced in guinea pigs by an i.v. injection of anti-Forssman antiserum and the harmonic mean death time of treated guinea pigs is compared with that of simultaneous controls; (vi) Complement Level Reduction Test -- In this test, the above dosed guinea pigs, or others, are bled for serum and the complement level is determined in undiluted serum by the capillary tube method of U.S. Pat. No. 3,876,376 and compared to undosed control guinea pigs; and (vii) Cap 50 Test -- Here, appropriate amounts of the test compound are added to a pool of guinea pig serum in vitro, after which the undiluted serum capillary tube assay referred to above is run. The concentration of compound inhibiting 50% is reported.
(§2) **Activity in wells a serial dilution assay. Higher well number indicates
(§3) higher activity. The serial dilutions are two-fold.

Experiment [2] concerns late components of human complement (C3-C9). Description: Test, Code 035 (C3-C9 inhibitor): lysis of EAC 142 by late components of human complement. In kind it is biochemical. The arrangement: key: Negative. The following applies: serial two-fold dilution assay; higher well number indicates higher activity.
From the text: as §1, §2, §3

Another experiment concerns the target T1, activated human C1 (Homo sapiens, UniProt P09871).
T1 construct: fluid-phase human C2 substrate in presence of C4
Description: Test, Code 026 (C1 inhibitor): protection of human C2 from activated human C1 and C4. In kind it is biochemical. The following applies: serial two-fold dilution assay; higher well number indicates higher activity.
From the text: as §1, §2, §3

The next experiment deals with whole complement. As to the kind of experiment: Complement Level Reduction Test: whole complement in serum of dosed guinea pigs, capillary tube assay. To be noted: 200 mg/kg. In kind it is in vivo.
From the text: as §1
With reference to Table I, guinea pigs weighing about 300 g were dosed intravenously (i.v.) or intraperitoneally (i.p.) with 200 mg/kg of the test compound dissolved in saline and adjusted to pH 7-8. […] The serum was tested for whole complement using the capillary tube assay. Percent inhibition was calculated by comparison with simultaneous controls. The results appear in Table I together with results of tests, code 026, 035, 036, Cap 50, % inhibition and Forssman shock.

Structures can show the parent of a compound that is named as a salt.

T1 sequence (P09871 16-688): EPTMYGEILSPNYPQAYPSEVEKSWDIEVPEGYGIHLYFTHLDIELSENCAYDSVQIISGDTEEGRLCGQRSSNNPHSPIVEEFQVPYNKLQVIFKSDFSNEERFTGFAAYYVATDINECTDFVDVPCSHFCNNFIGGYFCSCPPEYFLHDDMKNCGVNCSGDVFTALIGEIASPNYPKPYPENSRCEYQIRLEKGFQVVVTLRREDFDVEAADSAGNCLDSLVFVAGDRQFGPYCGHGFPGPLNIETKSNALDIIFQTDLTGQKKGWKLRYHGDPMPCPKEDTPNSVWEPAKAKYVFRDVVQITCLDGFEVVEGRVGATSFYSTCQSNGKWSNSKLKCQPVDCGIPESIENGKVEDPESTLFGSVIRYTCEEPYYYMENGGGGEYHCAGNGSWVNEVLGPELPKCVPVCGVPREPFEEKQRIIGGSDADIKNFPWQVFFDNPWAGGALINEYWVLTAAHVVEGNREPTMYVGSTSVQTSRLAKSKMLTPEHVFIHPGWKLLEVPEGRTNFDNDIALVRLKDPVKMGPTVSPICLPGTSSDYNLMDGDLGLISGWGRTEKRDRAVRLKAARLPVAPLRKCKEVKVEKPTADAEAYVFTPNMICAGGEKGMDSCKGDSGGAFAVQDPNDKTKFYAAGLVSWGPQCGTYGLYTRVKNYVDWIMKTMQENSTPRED
T1 sequence (P00736 18-705 partner): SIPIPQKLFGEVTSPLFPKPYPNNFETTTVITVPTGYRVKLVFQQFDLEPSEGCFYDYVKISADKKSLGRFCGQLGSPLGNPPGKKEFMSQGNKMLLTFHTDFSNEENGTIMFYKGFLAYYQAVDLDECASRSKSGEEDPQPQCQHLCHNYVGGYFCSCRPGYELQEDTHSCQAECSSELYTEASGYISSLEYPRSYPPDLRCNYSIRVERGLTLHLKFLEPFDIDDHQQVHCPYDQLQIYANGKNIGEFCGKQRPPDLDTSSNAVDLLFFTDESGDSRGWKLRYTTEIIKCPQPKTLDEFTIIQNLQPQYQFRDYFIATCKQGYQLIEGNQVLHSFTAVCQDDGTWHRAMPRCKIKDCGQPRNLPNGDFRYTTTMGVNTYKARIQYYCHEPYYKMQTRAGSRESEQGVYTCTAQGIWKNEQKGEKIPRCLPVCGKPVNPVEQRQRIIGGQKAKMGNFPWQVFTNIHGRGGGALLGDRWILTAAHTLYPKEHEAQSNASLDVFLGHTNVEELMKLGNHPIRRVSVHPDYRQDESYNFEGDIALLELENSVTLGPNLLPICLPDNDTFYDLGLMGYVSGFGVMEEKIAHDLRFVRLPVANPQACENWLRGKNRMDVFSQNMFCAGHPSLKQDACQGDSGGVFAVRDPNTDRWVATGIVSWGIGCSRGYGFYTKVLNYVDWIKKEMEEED
T1 sequence (P02745 23-245 partner): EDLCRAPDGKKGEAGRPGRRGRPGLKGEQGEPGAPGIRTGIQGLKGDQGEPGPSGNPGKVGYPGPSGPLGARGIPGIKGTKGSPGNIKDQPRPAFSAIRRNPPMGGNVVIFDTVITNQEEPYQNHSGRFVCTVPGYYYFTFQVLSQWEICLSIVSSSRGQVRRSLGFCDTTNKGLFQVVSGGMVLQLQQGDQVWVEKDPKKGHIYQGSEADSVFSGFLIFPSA
T1 sequence (P02746 28-253 partner): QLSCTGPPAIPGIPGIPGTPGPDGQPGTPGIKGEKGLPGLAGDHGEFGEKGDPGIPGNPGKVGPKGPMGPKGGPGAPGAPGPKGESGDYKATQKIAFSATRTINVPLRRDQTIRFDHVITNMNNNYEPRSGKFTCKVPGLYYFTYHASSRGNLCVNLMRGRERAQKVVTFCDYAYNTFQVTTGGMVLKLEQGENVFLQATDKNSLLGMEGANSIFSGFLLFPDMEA
T1 sequence (P02747 29-245 partner): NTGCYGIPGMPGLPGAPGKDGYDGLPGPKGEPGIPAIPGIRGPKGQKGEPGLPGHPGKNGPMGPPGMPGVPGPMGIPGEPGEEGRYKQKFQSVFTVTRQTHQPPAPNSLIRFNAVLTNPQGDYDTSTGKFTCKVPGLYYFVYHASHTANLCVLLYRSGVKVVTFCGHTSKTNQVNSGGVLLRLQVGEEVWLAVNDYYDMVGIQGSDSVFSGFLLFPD

In the case of “8-(3-benzamido-4-methylbenzamido)naphthalene-1,3,5-trisulfonic acid [Suramin]”, in the experiment with complement system, the “anticomplementary / complement inhibiting effect” value is reported as “competitive inhibitor of the complement system”. Further, the “use in the treatment of hereditary angioneurotic edema” value (from here on “use in the treatment”) in experiment [1] was “used with success”.

`O=C([O-])c1cccc(NS(=O)(=O)c2ccc3c(S(=O)(=O)Nc4cccc(C(=O)[O-])c4)cc(S(=O)(=O)Nc4cccc(C(=O)[O-])c4)cc3c2)c1.[Na+].[Na+].[Na+]` [3,3',3"-[1,3,6-Naphthalenetriyltris(sulfonylimino)]tribenzoic acid trisodium salt]: the “Shunt Inhibition 036 Wells” value in the experiment with shunt pathway is on record as “N”. Moreover, in experiment [2], the “C-Late 035 Wells” value is given as “N”. In addition, at activated human C1, the “C1 026 Wells” value is “+3 wells”.

In the case of `O=C(O)c1cc(NS(=O)(=O)c2ccc3c(S(=O)(=O)Nc4ccc(O)c(C(=O)O)c4)cc(S(=O)(=O)Nc4ccc(O)c(C(=O)O)c4)cc3c2)ccc1O` [3,3',3"-[1,3,6-Naphthalenetriyltris(sulfonylimino)]tris[6-hydroxybenzoic acid]], in the experiment on shunt pathway, the “Shunt Inhibition 036 Wells” value was “N”. Moreover, in experiment [2], the “C-Late 035 Wells” value is reported as “N”. In addition, the “C1 026 Wells” value at activated human C1 was “+1 wells”.

Take `O=C([O-])c1ccc(NS(=O)(=O)c2ccc3c(S(=O)(=O)Nc4ccc(C(=O)[O-])cc4)cc(S(=O)(=O)Nc4ccc(C(=O)[O-])cc4)cc3c2)cc1.[Na+].[Na+].[Na+]` [4,4',4"-[1,3,6-Naphthalenetriyltris(sulfonylimino)]tribenzoic acid trisodium salt]: the “Shunt Inhibition 036 Wells” value with shunt pathway was “N”. Also, the “C-Late 035 Wells” value in experiment [2] was “N”.

For the compound `O=C(O)c1cc(NS(=O)(=O)c2ccc3c(S(=O)(=O)Nc4cc(C(=O)O)c(O)c(C(=O)O)c4)cc(S(=O)(=O)Nc4cc(C(=O)O)c(O)c(C(=O)O)c4)cc3c2)cc(C(=O)O)c1O` [5,5',5"-[1,3,6-Naphthalenetriyltris(sulfonylimino)]-tris[2-hydroxyisophthalic acid]], in the experiment with shunt pathway, the “Shunt Inhibition 036 Wells” value is “+4 wells”. Moreover, in the experiment with whole complement, the “In Vivo Activity (Guinea Pig) % Inhibition, Intraperitoneal, 30 minutes” value is given as -69%; the “In Vivo Activity (Guinea Pig) % Inhibition, Intraperitoneal, 60 minutes” value was -59%; the “In Vivo Activity (Guinea Pig) % Inhibition, Intraperitoneal, 120 minutes” value is listed as -58%. Moreover, the “C-Late 035 Wells” value in experiment [2] is reported as “+1 wells”. The “C1 026 Wells” value on activated human C1 was “+5 wells”.

As to `O=C([O-])c1cc(NS(=O)(=O)c2ccc3c(S(=O)(=O)Nc4cc(C(=O)[O-])c(C(=O)[O-])c(C(=O)[O-])c4)cc(S(=O)(=O)Nc4cc(C(=O)[O-])c(C(=O)[O-])c(C(=O)[O-])c4)cc3c2)cc(C(=O)[O-])c1C(=O)[O-].[Na+].[Na+].[Na+].[Na+].[Na+].[Na+].[Na+].[Na+].[Na+]` [5,5',5"-[1,3,6-Naphthalenetriyltris(sulfonylimino)]tri-1,2,3-benzenetricarboxylic acid nonasodium salt], in the experiment on whole complement, the “In Vivo Activity (Guinea Pig) % Inhibition, Intraperitoneal, 30 minutes” value is on record as -63%; the “In Vivo Activity (Guinea Pig) % Inhibition, Intraperitoneal, 60 minutes” value is given as -71%; the “In Vivo Activity (Guinea Pig) % Inhibition, Intraperitoneal, 120 minutes” value is -71%. The “C1 026 Wells” value on activated human C1 was “+8 wells”.

In the case of `O=C([O-])c1cc(NS(=O)(=O)c2ccc3c(S(=O)(=O)Nc4cc(C(=O)[O-])cc(C(=O)[O-])c4)cc(S(=O)(=O)Nc4cc(C(=O)[O-])cc(C(=O)[O-])c4)cc3c2)cc(C(=O)[O-])c1.[Na+].[Na+].[Na+].[Na+].[Na+].[Na+]` [5,5',5"-[1,3,6-Naphthalenetriyltris(sulfonylimino)]triisophthalic acid hexasodium salt], in the experiment with whole complement, the “In Vivo Activity (Guinea Pig) % Inhibition, Intraperitoneal, 30 minutes” value was -67%; the “In Vivo Activity (Guinea Pig) % Inhibition, Intraperitoneal, 60 minutes” value was -79%; the “In Vivo Activity (Guinea Pig) % Inhibition, Intraperitoneal, 120 minutes” value is reported as -84%. Besides, the “C-Late 035 Wells” value in experiment [2] is given as “N”.

On to `O=C(O)c1cc(NS(=O)(=O)c2ccc3c(S(=O)(=O)Nc4cc(C(=O)O)cc(C(=O)O)c4)cc(S(=O)(=O)Nc4cc(C(=O)O)cc(C(=O)O)c4)cc3c2)cc(C(=O)O)c1` [5,5',5"-[1,3,6-Naphthalenetriyltris(sulfonyliminol)]triisophthalic acid], for which the “Shunt Inhibition 036 Wells” value in the experiment on shunt pathway was “+2 wells”. In addition, in the experiment with whole complement, the “In Vivo Activity (Guinea Pig) % Inhibition, Intraperitoneal, 30 minutes” value is -84%; the “In Vivo Activity (Guinea Pig) % Inhibition, Intraperitoneal, 60 minutes” value is given as -88%; the “In Vivo Activity (Guinea Pig) % Inhibition, Intraperitoneal, 120 minutes” value was -96%. For the same compound, the “C-Late 035 Wells” value in experiment [2] was “N”. Moreover, the “C1 026 Wells” value on activated human C1 was “+6 wells”.

Consider `CN(c1cc(C(=O)O)cc(C(=O)O)c1)S(=O)(=O)c1ccc2c(S(=O)(=O)N(C)c3cc(C(=O)O)cc(C(=O)O)c3)cc(S(=O)(=O)N(C)c3cc(C(=O)O)cc(C(=O)O)c3)cc2c1` [5,5',5"-[1,3,6-Naphthalenetriyltris(sulfonylmethylimino)]triisophthalic acid hexasodium salt], for which the “Shunt Inhibition 036 Wells” value in the experiment with shunt pathway is recorded as “N”. For the same compound, in experiment [2], the “C-Late 035 Wells” value was “N”. Besides, the “C1 026 Wells” value on activated human C1 is recorded as “+3 wells”.

For the compound `Nc1ccc2cc(S(=O)(=O)O)cc(O)c2c1N=Nc1ccc(NC(=O)Nc2ccc(N=Nc3c(N)ccc4cc(S(=O)(=O)O)cc(O)c34)c(S(=O)(=O)O)c2)cc1S(=O)(=O)O` [chlorazol fast pink, 3,3'-ureylenebis-[6-(2-amino-8-hydroxy-6-sulfo-1-naphthylazo)]benzenesulfonic acid, tetrasodium salt], in the experiment with complement system, the “anticomplementary / complement inhibiting effect” value is recorded as “anticomplementary effect”.

In the case of `NCCCCCC(=O)O` [epsilon-aminocaproic acid], the “use in the treatment” value in experiment [1] is on record as “used with success”.

Take `NC[C@H]1CC[C@H](C(=O)O)CC1` [tranexamic acid]: the “use in the treatment” value in experiment [1] is given as “used with success”.

Turning to heparin, the “anticomplementary / complement inhibiting effect” value with complement system is recorded as “anticomplementary effect”.
